Test results taken from patent US9302992B2, “Multifunctional quinoline derivatives as anti-neurodegenerative agents” (ANNJI PHARMACEUTICAL CO., LTD., priority 2013, dated 2016).

Key:
[1] = system: neuron cells; assay: Neuroprotection of neuron cells against fAβ; type: cell-based; conditions: for protection of neuron cells from zinc-induced fAβ: FIGS. 3A-B
Experimental: FIGS. 3A-B show compound C12 acting as a neuroprotective agent targeting fAβ.
(§1) Only compound C12 was effective toward zinc-free aggregates (FIG. 3B). […] Mice were assessed for the total duration of movement (FIG. 7A) and total duration of distance (FIG. 7B) to climb onto the hidden platform; and also quantified the appearance to target zone (FIG. 7C) indicating the relative time (compared to total time in swimming) to entry into a zone around the hidden platform; and for average swimming velocity (FIG. 7D) to discriminate enhanced memory from enhanced motor activity.

[2] = system: memory-deficit fAβ-lesioned mice; assay: Morris water maze test in memory-deficit fAβ-lesioned mice; type: in vivo; conditions: FIGS. 7A-D
Experimental: FIGS. 7A-D show the results of Morris water maze test.
as §1

[3] = target: Aβ (Homo sapiens, UniProt P05067); assay: Aβ aggregation / fAβ formation, microscopy analysis after Congo red staining; type: biochemical
[4] = target: preformed Aβ aggregates (Homo sapiens, UniProt P05067); assay: Dissolution of preformed Aβ aggregates; type: biochemical; conditions: FIG. 1B and FIG. 2
[5] = system: fAβ-lesioned mice; assay: Rotarod test in fAβ-lesioned mice; type: in vivo; conditions: FIG. 6; for riding time in rotarod test: 10 mg/kg, fAβ-lesioned mice; for performance of learning: fAβ-induced memory-deficit mice
[6] = system: mice; assay: Animal model: memory and toxicity in mice; type: in vivo; conditions: 1 to 100 mg/kg, preferable 1 to 10 mg/kg, i.p. daily; for toxicity: mice
[7] = system: memory-deficit fAβ-lesioned mice; assay: GAP43 level and fAβ level in memory-deficit fAβ-lesioned mice; type: in vivo; conditions: FIG. 8
[8] = system: undifferentiated PC12 cells; assay: Neurite outgrowth on undifferentiated PC12 cells; type: cell-based; conditions: FIG. 4

Sequence of Aβ (P05067 672-711 limits assumed): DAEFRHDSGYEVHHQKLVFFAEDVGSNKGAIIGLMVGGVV
Sequence of preformed Aβ aggregates (P05067 672-711 limits assumed): as above

SMILES | protection of neuron cells from zinc-induced fAβ [1] | riding time in rotarod test [5] | performance of learning [5] | memory of mice [6] | toxicity [6] | neurite outgrowth [8] | other results
COc1ccc(Cl)c2ccc(CCCCCCCCCCCO)nc12 [C12, 11-(5-chloro-8-methoxyquinolin-2-yl)undecan-1-ol] | protected | increased riding time | improved performance of learning | improve memory of mice | without causing significant toxicity | – | effectiveness toward zinc-free aggregates ([1]; zinc-free aggregates, FIG. 3B): effective; learning in the Morris water maze test [2]: improved learning; polymerization of Aβ ([3]; in the absence of zinc ions, FIG. 2): inhibiting polymerization of Aβ; Aβ aggregation ([3]; in the presence or absence of zinc ions, Congo red staining, FIG. 1A): inhibited Aβ aggregation; dissolution of preformed Aβ aggregates [4]: dissolved preformed Aβ aggregates; GAP43 level [7]: increase in GAP43 level; fAβ level [7]: decrease in fAβ level
COc1cccc2ccc(CCCCCCCCCCCO)nc12 [C3, 11-(8-methoxyquinolin-2-yl)undecan-1-ol] | – | – | – | – | – | induction of neurite outgrowth | –
CCOc1cccc2ccc(CCCCCCCCCCCO)nc12 [D3, 11-(8-ethoxyquinolin-2-yl)undecan-1-ol] | – | – | – | – | – | induction of neurite outgrowth | –
Oc1c(I)cc(Cl)c2cccnc12 [CQ, reference compound] | protected | – | – | – | – | – | –
OCCCCCCCCCCCc1ccc2cccc(O)c2n1 [B3, 2-(11-hydroxyundecyl)quinolin-8-ol] | – | increased riding time | improved performance of learning | improve memory of mice | without causing significant toxicity | induction of neurite outgrowth | –
